Measured values published in the NIST ThermoML archive (doi:10.1016/j.jct.2005.11.003).

Key:
[1] = xn = mol fraction of the nth substance listed; conditions: 298.15 K, 101 kPa, Liquid
[2] = excess molar enthalpy (molar enthalpy of mixing); xn = mol fraction of the nth substance listed; conditions: 298.15 K, 101 kPa, Liquid

ClCCCCCCl [1,5-dichloropentane] + CCCCOC(C)=O
[1]
Conditions	mass density [kg/m3]
x2 = 0.0558	1082.62
x2 = 0.1119	1070.12
x2 = 0.1697	1057.27
x2 = 0.2268	1044.6
x2 = 0.3432	1018.88
x2 = 0.4608	993.04
x2 = 0.5786	967.32
x2 = 0.6957	941.92
x2 = 0.8167	915.81
x2 = 0.8757	903.13
x2 = 0.9364	890.15

ClCCCCCCCl [1,6-dichlorohexane] + CCCCOC(=O)CC
[1]
Conditions	mass density [kg/m3]
x2 = 0.0591	1052.23
x2 = 0.1161	1041.11
x2 = 0.1728	1030.03
x2 = 0.2284	1019.22
x2 = 0.345	996.62
x2 = 0.4083	984.38
x2 = 0.4668	973.12
x2 = 0.5258	961.74
x2 = 0.6403	939.75
x2 = 0.6994	928.38
x2 = 0.7645	915.95
x2 = 0.8173	905.83
x2 = 0.8835	893.21
x2 = 0.9423	882.05

ClCCCl [1,2-dichloroethane] + CCCCOC(C)=O
[1]
Conditions	mass density [kg/m3]
x2 = 0.0359	1223.55
x2 = 0.0733	1201.71
x2 = 0.1139	1178.94
x2 = 0.1559	1156.86
x2 = 0.1988	1135.53
x2 = 0.2456	1113.51
x2 = 0.2953	1091.52
x2 = 0.3469	1070.08
x2 = 0.4021	1048.45
x2 = 0.4599	1027.18
x2 = 0.5233	1005.31
x2 = 0.5883	984.3
x2 = 0.6585	963
x2 = 0.7344	941.52
x2 = 0.8173	919.59
x2 = 0.9013	898.96

CCCCOC(=O)CCC [butyl butanoate] + ClCCCl
[1]
Conditions	mass density [kg/m3]
x1 = 0.0297	1221.83
x1 = 0.0605	1198.84
x1 = 0.0933	1176.2
x1 = 0.1275	1153.91
x1 = 0.1649	1131.5
x1 = 0.2054	1109
x1 = 0.2498	1086.2
x1 = 0.2967	1064.01
x1 = 0.3484	1041.64
x1 = 0.4037	1019.73
x1 = 0.4652	997.47
x1 = 0.5324	975.45
x1 = 0.605	953.73
x1 = 0.6862	931.87
x1 = 0.7785	909.66
x1 = 0.8821	887.38

CCCCOC(=O)CCC [butyl butanoate] + ClCCCCCCl
[1]
Conditions	mass density [kg/m3]
x1 = 0.0481	1081.06
x1 = 0.0957	1067.51
x1 = 0.1451	1053.83
x1 = 0.1939	1040.72
x1 = 0.2465	1026.89
x1 = 0.3533	1000.09
x1 = 0.4105	986.32
x1 = 0.5282	959.19
x1 = 0.6536	932.02
x1 = 0.7875	904.75
x1 = 0.8568	891.25

ClCCCCCCl [1,5-dichloropentane] + CCCCOC=O
Conditions	excess molar enthalpy [kJ/mol]	mass density [kg/m3]
[1], x2 = 0.0616	–	1083.81
[1], x2 = 0.126	–	1071.76
[1], x2 = 0.1909	–	1059.46
[1], x2 = 0.2522	–	1047.68
[1], x2 = 0.3138	–	1035.64
[1], x2 = 0.3757	–	1023.39
[1], x2 = 0.4364	–	1011.18
[1], x2 = 0.4966	–	998.9
[1], x2 = 0.5548	–	986.84
[1], x2 = 0.6137	–	974.47
[1], x2 = 0.6701	–	962.48
[1], x2 = 0.7247	–	950.68
[1], x2 = 0.7822	–	938.09
[1], x2 = 0.8374	–	925.86
[1], x2 = 0.8906	–	913.92
[1], x2 = 0.9443	–	901.66
[2], x2 = 0.069	0.0472	–
[2], x2 = 0.1384	0.0749	–
[2], x2 = 0.2122	0.0962	–
[2], x2 = 0.2809	0.105	–
[2], x2 = 0.3459	0.105	–
[2], x2 = 0.4058	0.0973	–
[2], x2 = 0.4619	0.0857	–
[2], x2 = 0.4922	0.0701	–
[2], x2 = 0.5374	0.0519	–
[2], x2 = 0.5877	0.0466	–
[2], x2 = 0.6417	0.0345	–
[2], x2 = 0.7001	0.0305	–
[2], x2 = 0.7618	0.0239	–
[2], x2 = 0.8234	0.0153	–
[2], x2 = 0.8876	0.0086	–
[2], x2 = 0.9487	0.0044	–
